Earlier results in patent US20210363254A1, “PHARMACEUTICAL COMBINATIONS” (Novartis AG, priority 2018, published 2021).

Tested on: renal cell carcinoma (RCC)
Details: RCC patients beyond first-line therapy; cited from earlier work

Nivolumab: inhibitor of the PD-1/PD-L1 interaction approved for use in RCC
OS benefit compared with everolimus: 5.4 months | median OS: 25 months
